The target of experiment [1] is T1, mitochondria-bound hexokinase (mitochondrial fraction isolated from mouse brain) (Mus musculus, UniProt P17710).
T1 construct: detach hexokinase from mitochondrial fraction isolated from mouse brain; from tissue; host or cells: mouse brain (mitochondrial fraction)
Briefly: Hexokinase detachment assay, mitochondrial fraction of mouse brain. The class given is biochemical.
Method: To determine the amount of hexokinase detached from the mitochondrial fraction by different agents, mitochondria were incubated with the agent of interest and pelleted by centrifugation. Activity of hexokinase in the supernatant (i.e., activity of the detached hexokinase) was determined spectrophotometrically at 340 nm. The reaction couples the ADP formation by hexokinase, consuming the ADP for pyruvate formation by pyruvate kinase, and reducing the pyruvate with NADH by lactate dehydrogenase. Briefly, mitochondria were suspended in incubation buffer (HEPES pH 7.4 20 mM, Sucrose 0.25M, Glucose 10 mM, KCl5 mM, MgCl2 10 mM; 0.2 mg/test, 100 μL/test) and incubated as described below. Mitochondria-bound hexokinase was precipitated by centrifugation at 20,000 g for 10 minutes at 4° C. The activity of hexokinase in the supernatant fraction was assayed in reaction buffer (250 μL; HEPES pH 7.2 20 mM, MgCl2 5 mM, KCl 5 mM, glucose 10 mM) freshly supplemented with pyruvate kinase (1 U/ml), lactate dehydrogenase (1 U/ml), ATP (1 mM), phospho(enol)pyruvate (1 mM), NADH (0.18 mg/ml). […] Mitochondrial fractions were incubated for either 10, 30 or 60 minutes at 37° C. The activity of unbound hexokinase was measured and compared to the activity of spontaneously (control) detached hexokinase.

Experiment [2] concerns mitochondrial fraction isolated from CT-26 tumors. The experiment can be described thus: Cytochrome c release from mitochondrial fraction. It counts as biochemical, murine. Conditions: 3 mM. The procedure:
Freshly isolated mitochondrial fraction, at a final concentration of 2 mg/ml in a volume of 100 μL, was incubated at 37° C. with the examined agent, e.g. methyl jasmonate, in a KCl-based respiratory buffer (150 mM KCl, 25 mM NaHCO3, 1 mM MgCl2, 3 mM KH2PO4, 20 mM Hepes, pH 7.4; Pastorino, 2002). Potassium succinate (5 mM) was added as respiratory substrate (Azoulay-Zohar, 2004). For the determination of cytochrome c release, mitochondrial fraction was pelleted at 20,000×g for 10 minutes at 4° C. Pellets were incubated for 40 minutes with lysis buffer (Tris HCl, pH 8, 20 mM, NaCl 137 mM, EDTA 2 mM, pH 8, 1% Triton-X-100, Protease Inhibitors cocktail: Sigma) on ice (Fingrut, 2005). Pellet lysates and supernatants were separated on 12% SDS-PAGE gels and electroblotted onto nitrocellulose membranes. Cytochrome c was detected by specific antibody (1:1000, BD PharMingen, San Diego, Calif.). Antigen-antibody complexes were stained with horseradish peroxidase-conjugated antibody (1:10,000, Santa Cruz Biotechnology, CA) and enhanced chemiluminescence (ECL) reagent (EZ-ECL, Biological Industries, Beit Haemek, Israel), and exposed to ECL film (Eastman Kodak, Rochester, N.Y., U.S.A.). Cytochrome c release from mitochondrial fraction isolated from CT-26 tumors occurred within the same time frame (15-60 minutes) required to detach hexokinase from mitochondria (FIG. 3). […]

In experiment [3] the test system is Molt-4 cells. The experiment can be described thus: Cellular ATP levels (CellTiter-Glo), Molt-4. The class given is cell-based, human. Conditions: 60 minutes of exposure, various concentrations. The procedure:
(§1) The CellTiter-Glo™ Luminescent Cell Viability Assay (Promega, Madison, Wis., U.S.A.) was employed (Fingrut, 2005). Upon completion of a given experiment, plates were equilibrated to room temperature. CellTiter-Glo™ reagent containing luciferin and luciferase was added to each well and the plates were mixed on an orbital shaker for 2 minutes to induce cell lysis. In the presence of ATP, Mg^2+ and molecular oxygen, mono-oxidation of luciferin is catalyzed by luciferase, generating a luminescence signal. Cells were then incubated for 10 minutes at room temperature to stabilize the luminescence signal. Luminescence was recorded using Kodak digital science—Image station 440 CD. Luminescence is directly proportional to ATP concentration. ATP depletion (% of control) was calculated in the following way: {(luminescence of control cells−luminescence of drug-treated cells)/luminescence of control cells}×100. In order to test the correlation between cellular ATP levels and the release of hexokinase from mitochondrial fraction different cancer cells, namely Molt-4 cells, BCL-1 leukemic cells and B16 melanoma tumors were exposed to various methyl jasmonate concentrations. […] CT26 and Molt-4 cells were then seeded in 24 well plates. CT26 cells were allowed to adhere over night. Cells were exposed to methyl jasmonate (MJ; 3 mM) for 1 hour. Trypan blue exclusion test was performed and cells were counted.
Background: In ATP-based viability assays light output follows the ATP content of the culture.

Another experiment has as its system CT26 cells. The experiment can be described thus: Cellular ATP levels (CellTiter-Glo), CT26. It counts as cell-based, murine. The following applies: 60 minutes of exposure, indicated concentrations (FIG. 4A). Here is the method: as §1
Experiment [4] deals with Molt-4 cells. The experiment can be described thus: Trypan blue exclusion test, Molt-4. It counts as cell-based, human. The following applies: 3 mM, 1 hour. Here is the method: Cell death was determined by trypan blue exclusion. […] Alternatively, cytotoxicity was determined using hemacolor staining. […] In order to test the correlation between cellular ATP levels and the release of hexokinase from mitochondrial fraction different cancer cells, namely Molt-4 cells, BCL-1 leukemic cells and B16 melanoma tumors were exposed to various methyl jasmonate concentrations. […] CT26 and Molt-4 cells were then seeded in 24 well plates. CT26 cells were allowed to adhere over night. Cells were exposed to methyl jasmonate (MJ; 3 mM) for 1 hour. Trypan blue exclusion test was performed and cells were counted.

Experiment [5] addresses T2, hexokinase-I-Voltage dependent anion channel interactions (Rattus norvegicus, UniProt P05708).
T2 construct: from tissue; host or cells: HK-I from rat brain mitochondria; VDAC from rat liver mitochondria
The experiment can be described thus: Voltage-dependent anion channel recording in planar lipid bilayer after addition of hexokinase-I. The class given is biochemical. Conditions: 3 mM, HK-I 20 mU/ml, recorded after 10 minutes. Here is the method:
Currents were measured with respect to the trans side of the membrane (ground).

The test system of a further experiment is hexokinase. Briefly: Hexokinase activity, agent added directly to the coupled assay mixture. It counts as biochemical. The following applies: coupled pyruvate kinase/lactate dehydrogenase assay, 340 nm.

T2 sequence (P05708 whole entry): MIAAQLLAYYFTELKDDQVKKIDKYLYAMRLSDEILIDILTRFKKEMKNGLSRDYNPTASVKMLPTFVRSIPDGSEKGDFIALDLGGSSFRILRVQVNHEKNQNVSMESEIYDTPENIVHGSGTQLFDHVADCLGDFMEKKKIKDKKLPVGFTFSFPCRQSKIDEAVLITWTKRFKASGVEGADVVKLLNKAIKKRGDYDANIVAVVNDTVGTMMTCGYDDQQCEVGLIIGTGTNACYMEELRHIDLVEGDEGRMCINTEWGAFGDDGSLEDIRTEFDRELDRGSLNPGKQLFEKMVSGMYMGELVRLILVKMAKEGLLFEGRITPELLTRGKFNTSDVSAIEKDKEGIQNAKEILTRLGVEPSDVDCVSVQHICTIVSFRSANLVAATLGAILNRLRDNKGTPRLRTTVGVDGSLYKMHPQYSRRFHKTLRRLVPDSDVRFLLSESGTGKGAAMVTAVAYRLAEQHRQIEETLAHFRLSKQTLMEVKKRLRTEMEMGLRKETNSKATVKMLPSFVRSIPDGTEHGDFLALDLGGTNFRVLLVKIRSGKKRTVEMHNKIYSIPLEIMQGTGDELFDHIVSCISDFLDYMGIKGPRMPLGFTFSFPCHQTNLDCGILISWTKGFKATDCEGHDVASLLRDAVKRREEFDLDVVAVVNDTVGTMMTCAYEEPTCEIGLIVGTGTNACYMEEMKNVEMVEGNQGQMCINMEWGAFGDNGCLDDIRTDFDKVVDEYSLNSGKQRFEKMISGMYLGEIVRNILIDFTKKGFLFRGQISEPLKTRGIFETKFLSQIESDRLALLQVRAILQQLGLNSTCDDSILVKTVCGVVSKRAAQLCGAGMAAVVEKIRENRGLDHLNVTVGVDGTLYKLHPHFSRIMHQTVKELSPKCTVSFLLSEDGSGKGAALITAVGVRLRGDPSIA
T1 sequence (P17710 1-918 isoform P17710-3): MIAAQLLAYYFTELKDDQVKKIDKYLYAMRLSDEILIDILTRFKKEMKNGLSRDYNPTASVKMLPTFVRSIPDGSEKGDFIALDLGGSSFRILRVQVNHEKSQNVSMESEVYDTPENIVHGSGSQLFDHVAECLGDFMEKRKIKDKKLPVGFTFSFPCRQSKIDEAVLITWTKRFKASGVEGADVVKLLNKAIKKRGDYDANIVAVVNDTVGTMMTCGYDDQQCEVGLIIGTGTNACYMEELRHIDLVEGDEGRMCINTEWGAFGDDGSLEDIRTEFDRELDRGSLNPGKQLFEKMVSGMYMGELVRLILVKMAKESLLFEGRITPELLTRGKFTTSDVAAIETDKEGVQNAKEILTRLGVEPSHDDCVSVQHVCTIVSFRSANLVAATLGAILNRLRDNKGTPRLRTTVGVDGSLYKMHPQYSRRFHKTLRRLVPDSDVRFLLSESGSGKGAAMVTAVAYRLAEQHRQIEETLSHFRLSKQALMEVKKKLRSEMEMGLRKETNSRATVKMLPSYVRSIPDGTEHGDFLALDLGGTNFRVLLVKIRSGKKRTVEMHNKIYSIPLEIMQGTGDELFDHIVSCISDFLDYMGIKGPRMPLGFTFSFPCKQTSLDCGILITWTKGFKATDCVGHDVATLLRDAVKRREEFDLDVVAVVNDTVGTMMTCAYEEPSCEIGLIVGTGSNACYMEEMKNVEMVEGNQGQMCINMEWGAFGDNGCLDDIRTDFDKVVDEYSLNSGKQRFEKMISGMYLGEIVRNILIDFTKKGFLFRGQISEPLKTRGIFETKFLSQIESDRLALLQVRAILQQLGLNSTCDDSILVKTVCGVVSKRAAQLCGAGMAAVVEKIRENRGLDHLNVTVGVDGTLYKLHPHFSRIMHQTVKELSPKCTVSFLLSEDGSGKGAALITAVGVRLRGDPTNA

Turning to `CC/C=C\CC1C(=O)CCC1CC(=O)OC` (centres unmarked) [methyl jasmonate], the “detachment of hexokinase, time dependence” value in experiment [1] (3 mM, 10, 30 or 60 minutes at 37° C.) is given as “time-dependent”. Further, in experiment [1] (30 minutes of incubation), the “detachment of hexokinase, dose dependence” value is given as “dose dependent”. Moreover, the “time frame of cytochrome c release” value in experiment [2] (CT-26 tumor mitochondrial fraction) is 15 to 60 min. In addition, in experiment [2] (CT-26 tumor, 37° C.), the “release of cytochrome c from isolated mitochondrial fraction” value is listed as “caused time-dependent release of cytochrome c”. In addition, the “cellular ATP level” value in the experiment with Molt-4 cells [3] was “significant and dose-dependent decrease of cellular ATP”; with CT26 cells, “depletes cellular ATP”. Also, the “sensitivity of Molt-4 relative to CT26 cells” value with Molt-4 cells [4] is “showed increased sensitivity with respect to CT26 tumor cells”. In the experiment with Molt-4 cells [4] (Molt-4), the “live/dead cells by Trypan blue exclusion” value is “still alive after 60 minutes”. Also, in experiment [5] (−20 mV), the “effect on HK-I-induced low-conducting state of voltage-dependent anion channel” value was “reversed by the addition of methyl jasmonate”. Besides, in experiment [5] (−40 mV), the “effect on HK-I-closed voltage-dependent anion channel” value is “led to re-opening of HK-I-closed channels”. Moreover, in the experiment with hexokinase, the “influence on hexokinase activity when added directly to the assay mixture” value is “neither methyl jasmonate nor jasmonic acid added directly to the assay mixture, influence hexokinase activity”.
